Drawing on PubChem BioAssay AID504661 (Broad Institute, 2011), this text covers apicoplast disruption for 4 compounds.

Calls of active or inactive are those of the source. How the calls were made is not given here.

This experiment deals with P. falciparum 3D7 ACP-GFP apicoplast imaging, 4 days. Nature of the experiment: loss of apicoplast ACP-GFP localization – imaging, 3D7 ACP-GFP strain, mechanism study for antimalarial project, late-stage follow-up (AID 504661). As to conditions: stronger effect = higher value.

`COCCOC(=O)N(C)C[C@@H]1OCCCC[C@H](C)Oc2ccc(NC(=O)Nc3ccccc3)cc2C(=O)N([C@@H](C)CO)C[C@H]1C`: the apicoplast disruption (at 50000 nM) was 13.7% (inactive).

Consider `C[C@@H]1CN([C@@H](C)COC(=O)C(C)(C)C)C(=O)c2cc(NC(=O)Nc3ccccc3)ccc2O[C@@H](C)CCCCO[C@H]1CN(C)S(=O)(=O)c1ccc(F)cc1`, for which, under “at 16 nM”, the apicoplast disruption was 17.2% (inactive).

Consider `COc1ccc(COC[C@H](C)N2C[C@@H](C)[C@H](CN(C)S(=O)(=O)c3ccc(F)cc3)OCCCC[C@H](C)Oc3ccc(NC(=O)Nc4ccccc4)cc3C2=O)cc1`, for which the apicoplast disruption (at 3.2 nM) is 16.1% (inactive).

For `Cc1noc(C)c1NC(=O)Nc1ccc2c(c1)C(=O)N([C@@H](C)CO)C[C@@H](C)[C@H](CN(C)S(=O)(=O)c1ccc(F)cc1)OCCCC[C@H](C)O2`, for the setting “at 2000 nM”, the apicoplast disruption is 21% (inactive).
